System: MM.1S cells
Test: Chemosensitivity evaluation of MM.1S cells to bortezomib in the pumpless culture platform (LIVE/DEAD in situ staining, HCS)
Format: cell-based, human
Conditions: 4 h treatment, 24 h recovery
Experimental: The high-throughput capability of the pumpless culture platform was evaluated by studying the response of MM.1S cells to bortezomib at four different concentrations (0 nM, 5 nM, 10 nM, 20 nM). Bortezomib is a proteasome inhibitor that induces MM cell apoptosis.^29 Before introducing MM.1S cells, OSB were dynamically cultured for 4 days (in a CO2 incubator at […]). MM.1S cells were pre-labeled with 5 μM cell trace violet (Thermo Fisher Scientific), 10 μL MM.1S with a cell density of 4 million/ml were seeded into culture chambers ([…]). The device was then placed inside a CO2 incubator at 37° C. for 4 h to let MM.1S settle prior to starting the flow. Cells were co-cultured for another 24 h, and then treated with bortezomib for 4 h. After drug treatment, the medium was changed and cultures were allowed to recover for a 24 h period before analyses were conducted. MM.1S alone, cultured in the device but under static conditions were used as control.
Cell viability after treatment and recovery was determine as described above, using LIVE/DEAD Viability/Cytotoxicity Kit (0.1 μM calcein AM & 0.1 μM EthD-1). Culture chambers were scanned using HCS (CellInsight™ CX5, Thermo Fisher Scientific). Cell trace violet^+ calcein AM^+ cells were identified as live MM.1S and cell trace violet^+ EthD-1^+ cells were identified as dead cells, using pre-design CX5 software algorithms (HCS Studio 2.0 Cell Analysis Software) for cell quantification and rapid analysis.
Data quantification was performed automatically using the HCS Studio Software. The percentage of live (cell trace violet^+ calcein AM^+ cells/cell trace violet^+ cells) and dead (cell trace violet^+EthD-1^+/cell trace violet^+ cells) MM.1S cells were plotted against bortezomib concentration.

CC(C)C[C@H](NC(=O)[C@H](Cc1ccccc1)NC(=O)c1cnccn1)B(O)O [bortezomib]
viability at 0.005 µM (Homo sapiens, MM1.S, MM.1S cultured alone, static, bortezomib 5 nM, read-out: viability (percentage of live MM.1S: cell trace violet+ calcein AM+ cells/cell trace violet+ cells)): ~60% | viability at 0.01 µM (Homo sapiens, MM1.S, MM.1S cultured alone, static, bortezomib 10 nM, read-out: viability (percentage of live MM.1S: cell trace violet+ calcein AM+ cells/cell trace violet+ cells)): ~15% | viability (percentage of live MM.1S: cell trace violet+ calcein AM+ cells/cell trace violet+ cells) (MM.1S in co-culture with OSB (hFOB 1.19), dynamic culture, bortezomib treatment range 0 nM to 10 nM): ~70%

From patent publication US11421194B2, “Pumpless platform for high-throughput dynamic multicellular culture and chemosensitivity evaluation” (Hackensack Meridian Health Center For Discovery and …, priority 2018, dated 2022)
